Test results: patent US20250304623A1, “PEPTIDES FOR INTRACELLULAR DELIVERY” (UNIVERSIDADE DE SANTIAGO DE COMPOSTELA, priority 2022, published 2025)
*: point of attachment. NHNH2 = NN*

Assays:
Type in all cases: cell-based
A549 cells = assay: RLuc pDNA delivery, robotic library screening, A549
Description: (§1) Cells were seeded in a 96 well plate the day before the experiment at a concentration of 60,000 cell/mL (100 μL/w) in DMEM+10% FBS+1% Gln-Abt. For robotic library screening, the delivery of pDNA encoding for the expression of Renilla luciferase gene (RLuc, pRL-CMV (Promega, #E2261)) in six different cell lines was performed. Amphihilic molecule stock solutions in DMSO were diluted with DMEM and freshly mixed with pDNA stock solutions in DMEM prior to transfection experiments, to afford several complexes at different amphiphile concentration (2-10 μM) while maintaining a constant final pDNA concentration of 2 ng/μL. The mixture was shaken for 30 min at room temperature before the addition to the cells. The cell medium was aspirated, and cells were washed twice with PBS. Finally, 50 μL of the complex's solution were added to the cells and incubated for 4 h. After the incubation, the medium was replaced by 100 μL of fresh DMEM supplemented with 10% FBS. 72 hours after transfection the DMEM was removed, cells were washed once with HBSS and 90 μL of HBSS were added to each well. Cells were incubated at 37° C. for 30 minutes. Then basal luminescence levels were read in a plate reader. Immediately, 10 μL of coelenterazine h in HBSS were added to each well (5 μM final concentration) and cells were incubated at 37° C. for 10 minutes. Finally, the total luminescence measurement of the plates was performed. Amphiphile transfection efficiency was compared and normalized to Lipofectamine® 2000 efficiency (value of 1 in Tables 1-5 and 7; bold numbers). All experiments were done in triplicate.
(§2) Tables 1-7: RLuc (pDNA) or EGFP (mRNA) expression levels were normalized to Lipofectamine reagents (value=1) and expressed as fold-times signal increase. In the case of siRNA, the siRNA treated cells fluorescence was compared with siMOCK control fluorescence, while Cas9-RNP mediated knockout was measured against the fluorescence of untreated cells. In both siRNA and Cas9-RNP, values are expressed as % fluorescence reduction. Amphiphile concentration was 5 μM in all cases. All experiments were performed in triplicate.
(§3) Tables 8-13 show the mean (triplicates) luminescent intensity (RLU) measured after the transfection of RLuc pDNA by different amphiphiles at different concentrations in a variety of cell lines. Background luminescence values, accounted by untransfected control cells, were subtracted for processing.

HepG2 cells = assay: RLuc pDNA delivery, robotic library screening, HepG2
Description: as §1, §2, §3

Hek293 cells [1] = assay: EGFP mRNA delivery, robotic library screening, Hek293
Description: Cells were seeded in a 96 well plate the day before the experiment at a concentration of 50,000 cell/mL (100 μL/w) in DMEM+10% FBS+1% Gln-Abt. For robotic library screening, the delivery of EGFP-mRNA (from TriLink, fully substituted with 5-methoxyuridine, capped and polyadenylated; TriLink, CleanCap® EGFP mRNA (5moU), ref. L-7201) in six different cell lines was performed. Amphiphilic molecule stock solutions were prepared in DMSO as described above and diluted in DMEM to afford a range of concentrations. The solutions of EGFP-mRNA/amphiphilic molecule complexes were freshly prepared prior to the transfection experiments. 35 μL of the corresponding amphiphile were added to 10 μL of a solution of EGFP-mRNA at 10 ng/μL in DMEM. The mixture was shaken for 30 min at room temperature before the addition to the cells. The cell medium was aspirated, and cells were washed with PBS twice. Cells were covered with 39 μL of DMEM and 11 μL of the complex's solution were added to the cells and incubated for 4 h (final concentration of peptide=2.5, 5 and 10 μM; final concentration of EGFP-mRNA=25 ng/well). After the incubation, the medium was replaced by 100 μL of fresh DMEM supplemented with 10% FBS. The total EGFP fluorescence was quantified after 72 h in a well plate reader. Amphiphile transfection efficiency was compared and normalized to Lipofectamine® MessengerMax efficiency (value of 1 in Tables 1-5 and 7; double underlined numbers). All experiments were done in triplicate.
as §2
Tables 14-19 show the mean (triplicates) fluorescence intensity measured after the transfection of EGFP mRNA by different amphiphiles at different concentrations in a variety of cell lines. Background fluorescence values, accounted by untreated control cells, were subtracted for processing.

Hek293 cells [2] = assay: RLuc pDNA delivery, robotic library screening, Hek293

Question: What does the source list for “Ac-RHLK*RHK*RRLK*RH-NH2 (Ac-RHLKRHKRRLKRH-NH2; not fully specified (residues 4, 7, 11); printed as Ac-RHLK*RHK*RRLK*RH-NH2; also: linker on K* not given here) [13(3His)]”?
Answer: mean luminescent intensity (RLuc pDNA) (A549 cells; Dodecanal, 15 μM): 1261 RLU; mean luminescent intensity (RLuc pDNA) (A549 cells; Myristoleyl, 5 μM): 37751 RLU; mean luminescent intensity (RLuc pDNA) (A549 cells; Myristoleyl, 10 μM): 2256 RLU; mean luminescent intensity (RLuc pDNA) (A549 cells; Oleyl, 5 μM): 25257 RLU; mean luminescent intensity (RLuc pDNA) (A549 cells; Palmitoleyl, 5 μM): 18924 RLU; mean luminescent intensity (RLuc pDNA) (A549 cells; Palmitoleyl, 10 μM): 2866 RLU; mean luminescent intensity (RLuc pDNA) (A549 cells; Palmitoleyl, 15 μM): 2990 RLU; mean luminescent intensity (RLuc pDNA) (A549 cells; Petroselinyl, 5 μM): 5271 RLU; mean luminescent intensity (RLuc pDNA) (A549 cells; Petroselinyl, 15 μM): 8545 RLU; mean luminescent intensity (RLuc pDNA) (HepG2 cells; Myristoleyl, 5 μM): 149920 RLU; mean luminescent intensity (RLuc pDNA) (HepG2 cells; Myristoleyl, 15 μM): 29774 RLU; mean luminescent intensity (RLuc pDNA) (HepG2 cells; Oleyl, 10 μM): 33557 RLU; mean luminescent intensity (RLuc pDNA) (HepG2 cells; Oleyl, 15 μM): 1389 RLU; mean luminescent intensity (RLuc pDNA) (HepG2 cells; Palmitoleyl, 5 μM): 65912 RLU; mean luminescent intensity (RLuc pDNA) (HepG2 cells; Palmitoleyl, 15 μM): 17170 RLU; mean fluorescence intensity (EGFP mRNA) (Hek293 cells [1]; Dodecanal, 5 μM): 1878; mean fluorescence intensity (EGFP mRNA) (Hek293 cells [1]; Dodecanal, 10 μM): 1687; mean fluorescence intensity (EGFP mRNA) (Hek293 cells [1]; Myristoleyl, 2.5 μM): 2039; mean fluorescence intensity (EGFP mRNA) (Hek293 cells [1]; Myristoleyl, 5 μM): 1952; mean fluorescence intensity (EGFP mRNA) (Hek293 cells [1]; Myristoleyl, 10 μM): 3636; mean fluorescence intensity (EGFP mRNA) (Hek293 cells [1]; Oleyl, 2.5 μM): 2611; mean fluorescence intensity (EGFP mRNA) (Hek293 cells [1]; Oleyl, 5 μM): 735; mean fluorescence intensity (EGFP mRNA) (Hek293 cells [1]; Oleyl, 10 μM): 1303; mean fluorescence intensity (EGFP mRNA) (Hek293 cells [1]; Petroselinyl, 2.5 μM): 3629; mean fluorescence intensity (EGFP mRNA) (Hek293 cells [1]; Petroselinyl, 5 μM): 2394; mean fluorescence intensity (EGFP mRNA) (Hek293 cells [1]; Petroselinyl, 10 μM): 2964; mean luminescent intensity (RLuc pDNA) (Hek293 cells [2]; Oleyl, 5 μM): 294438 RLU; mean luminescent intensity (RLuc pDNA) (Hek293 cells [2]; Oleyl, 10 μM): 191190 RLU; mean luminescent intensity (RLuc pDNA) (Hek293 cells [2]; Oleyl, 15 μM): 87323 RLU; mean luminescent intensity (RLuc pDNA) (Hek293 cells [2]; Palmitoleyl, 5 μM): 46216 RLU; mean luminescent intensity (RLuc pDNA) (Hek293 cells [2]; Palmitoleyl, 10 μM): 51837 RLU; mean luminescent intensity (RLuc pDNA) (Hek293 cells [2]; Palmitoleyl, 15 μM): 10351 RLU; mean luminescent intensity (RLuc pDNA) (Hek293 cells [2]; Petroselinyl, 5 μM): 330418 RLU; mean luminescent intensity (RLuc pDNA) (Hek293 cells [2]; Petroselinyl, 10 μM): 145597 RLU; mean luminescent intensity (RLuc pDNA) (Hek293 cells [2]; Petroselinyl, 15 μM): 36468 RLU

Question: For “Ac-RK*LRRLLRK*-NH2 (Ac-RK(NHNH2)LRRLLRK(NHNH2)-NH2; not fully specified; printed as Ac-RK*LRRLLRK*-NH2; also: K*2,K*9: native or modified lysine (ε-amide to a linker)) [Peptide 9.2]”, which “mean luminescent intensity (RLuc pDNA)” value (A549 cells; Dodecanal, 10 μM) is on record?
Answer: The value was 1215 RLU.

Question: And the “mean luminescent intensity (RLuc pDNA)” value (A549 cells; Myristoleyl, 5 μM)?
Answer: Its value is 10365 RLU.

Question: And the “mean luminescent intensity (RLuc pDNA)” value (A549 cells; Myristoleyl, 10 μM)?
Answer: The value was 3358 RLU.

Question: And the “mean luminescent intensity (RLuc pDNA)” value (A549 cells; Myristoleyl, 15 μM)?
Answer: The value was 1684 RLU.

Question: And the “mean luminescent intensity (RLuc pDNA)” value (HepG2 cells; Dodecanal, 10 μM)?
Answer: The value was 5678 RLU.

Question: What about the “mean luminescent intensity (RLuc pDNA)” value (HepG2 cells; Dodecanal, 15 μM) of the same substance?
Answer: The value was 2289 RLU.

Question: And the “mean luminescent intensity (RLuc pDNA)” value (HepG2 cells; Myristoleyl, 5 μM)?
Answer: The value was 26828 RLU.

Question: What about the “mean luminescent intensity (RLuc pDNA)” value (HepG2 cells; Myristoleyl, 10 μM) of the same substance?
Answer: Its value is 68860 RLU.

Question: And the “mean luminescent intensity (RLuc pDNA)” value (HepG2 cells; Myristoleyl, 15 μM)?
Answer: Its value is 46601 RLU.

Question: And the “mean luminescent intensity (RLuc pDNA)” value (Hek293 cells [2]; Dodecanal, 10 μM)?
Answer: The value was 32272 RLU.

Question: What about the “mean luminescent intensity (RLuc pDNA)” value (Hek293 cells [2]; Dodecanal, 15 μM) of the same substance?
Answer: The value was 18149 RLU.

Question: And the “mean luminescent intensity (RLuc pDNA)” value (Hek293 cells [2]; Oleyl, 15 μM)?
Answer: The value was 435 RLU.
